For one assay, the target named is T1, Leucine aminopeptidase (Plasmodium falciparum 3D7, UniProt Q8IL11).
T1 sequence (Q8IL11 whole entry): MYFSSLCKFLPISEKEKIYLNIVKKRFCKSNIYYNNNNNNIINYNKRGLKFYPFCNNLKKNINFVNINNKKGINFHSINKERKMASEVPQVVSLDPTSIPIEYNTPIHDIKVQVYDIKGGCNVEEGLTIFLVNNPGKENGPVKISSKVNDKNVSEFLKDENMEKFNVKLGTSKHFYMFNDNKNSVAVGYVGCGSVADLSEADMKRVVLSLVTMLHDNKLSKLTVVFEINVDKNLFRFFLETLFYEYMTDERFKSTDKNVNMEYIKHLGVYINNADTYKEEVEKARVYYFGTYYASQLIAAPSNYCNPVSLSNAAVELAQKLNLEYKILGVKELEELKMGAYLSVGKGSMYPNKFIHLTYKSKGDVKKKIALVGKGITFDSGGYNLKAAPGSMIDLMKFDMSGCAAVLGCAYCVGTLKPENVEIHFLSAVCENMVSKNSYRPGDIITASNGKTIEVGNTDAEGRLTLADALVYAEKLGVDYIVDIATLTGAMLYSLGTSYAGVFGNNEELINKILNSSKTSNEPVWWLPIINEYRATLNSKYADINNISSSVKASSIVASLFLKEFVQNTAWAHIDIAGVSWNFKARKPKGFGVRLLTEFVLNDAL
The experiment in a line: P. falciparum M17LAP inhibitors, primary screen, biochemical, fluorogenic H-Leu-NHMec substrate, 1536-well (AID 1619). It is filed as functional.

The next assay concerns the target T2, Aspartyl aminopeptidase (Plasmodium falciparum 3D7, UniProt Q8I2J3).
T2 sequence (Q8I2J3 whole entry): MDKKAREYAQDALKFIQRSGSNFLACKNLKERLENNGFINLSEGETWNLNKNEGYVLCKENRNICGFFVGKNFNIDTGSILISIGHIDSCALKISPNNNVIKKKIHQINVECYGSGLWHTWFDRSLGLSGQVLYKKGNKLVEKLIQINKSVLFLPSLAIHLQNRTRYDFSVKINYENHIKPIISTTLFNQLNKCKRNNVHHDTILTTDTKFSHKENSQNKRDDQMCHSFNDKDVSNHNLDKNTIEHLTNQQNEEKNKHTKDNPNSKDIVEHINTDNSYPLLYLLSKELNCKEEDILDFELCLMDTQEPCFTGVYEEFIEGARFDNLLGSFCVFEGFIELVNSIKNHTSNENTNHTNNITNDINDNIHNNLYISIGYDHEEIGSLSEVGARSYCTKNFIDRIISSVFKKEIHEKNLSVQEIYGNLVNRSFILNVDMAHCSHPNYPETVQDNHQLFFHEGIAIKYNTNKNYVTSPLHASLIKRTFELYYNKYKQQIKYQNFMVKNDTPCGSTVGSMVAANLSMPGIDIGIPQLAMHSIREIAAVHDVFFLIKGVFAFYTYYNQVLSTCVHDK
As to the kind of experiment: Counterscreen for inhibitors of M1 and M17 aminopeptidases: QFRET-based biochemical high throughput dose response assay for inhibitors of the Plasmodium falciparum M18 Aspartyl Aminopeptidase (PFM18AAP). [Related PubChem assays: 1619 (Screening assay (M17LAP inhibitors).), 1445 (Screening assay (M1AAP inhibitors).)]. On the technique in general: The purpose of a counterscreen is to sort out artefacts and off-target activity.

Another assay addresses Procathepsin L (Homo sapiens, UniProt P07711). The experiment in a line: cathepsin L inhibitors, dose response, counter-screen for M1/M17 aminopeptidase inhibitor project, biochemical, QFRET, 1536-well (AID 2214).
Assay [1] relates to Streptococcus sp. 'group A'. As to the kind of experiment: growth inhibition of control SK(-) GAS strain, dose response, counter-screen for streptokinase expression inhibitor project, luminescence, kanamycin, BacTiterGlo, confirmation (AID 1900). It is filed as functional, organism-based.
A further assay deals with T3, Streptokinase A (Streptococcus pyogenes serotype M1, UniProt P10520).
T3 sequence (P10520 whole entry): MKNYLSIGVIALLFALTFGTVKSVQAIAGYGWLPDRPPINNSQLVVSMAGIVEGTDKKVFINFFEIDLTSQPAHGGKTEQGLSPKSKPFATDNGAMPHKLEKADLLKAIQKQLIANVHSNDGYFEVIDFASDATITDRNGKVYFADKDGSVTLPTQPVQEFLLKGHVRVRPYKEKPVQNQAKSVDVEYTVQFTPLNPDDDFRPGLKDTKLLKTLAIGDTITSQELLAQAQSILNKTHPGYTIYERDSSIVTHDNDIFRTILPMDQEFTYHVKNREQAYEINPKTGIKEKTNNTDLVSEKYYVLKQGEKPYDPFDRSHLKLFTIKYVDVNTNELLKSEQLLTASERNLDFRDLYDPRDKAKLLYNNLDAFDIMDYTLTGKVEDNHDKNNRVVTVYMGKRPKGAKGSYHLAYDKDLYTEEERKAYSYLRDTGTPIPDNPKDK
As to the kind of experiment: S. pyogenes streptokinase expression inhibitors, potency, dose response, plasminogen activation absorbance, OD405 (AID 1914).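 Note: secreted streptokinase activity via plasminogen activation per viability signal from cell pellet.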 It is filed as functional, Streptococcus pyogenes M1 GAS.

The nature of assay [2]: inhibitors of intracellular T. cruzi replication, confirmation, NIH3T3 host cells, beta-gal luminescence (AID 2044).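 Note: intracellular parasites grown in NIH/3T3 mouse fibroblasts as host cells; luminescent beta-galactosidase reporter signal from transgenic T. cruzi replicating inside host cells; inhibitors lower the luminescence signal.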 It is filed as functional, cell-based.
Assay [3] can be described thus: growth suppression of PTEN-null colon cells, dose response, cell-based, HCT116 PTEN knockout (AID 1047).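 Note: HCT116 colon tumor cells with PTEN knocked out; cells exposed to compound for 60 hours before readout; potency for loss of cell viability measured by luminescence.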 It is filed as functional.
Assay [4] in a line: cytotoxicity toward NIH3T3 fibroblasts, dose response, counter-screen, cell-based, ATP luminescence, mouse fibroblasts (AID 2010).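 Note: cells exposed to compound for about 90 hours before reading.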 The format is functional.
Assay [5] is described as follows: growth suppression of beta-catenin-knockout colon cells, dose response, cell-based, HCT116, human colon tumor (AID 1045).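 Note: HCT116 colon tumor cells with beta catenin knocked out; cells exposed to compound for 60 hours.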 The format is functional.
The next assay concerns Streptococcus. As to the kind of experiment: Group A Streptococcus viability loss, dose response, counter-screen for streptokinase expression inhibitor project, luminescence, BacTiterGlo (AID 1915).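 Note: potency for reduction of bacterial viability or growth.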 It is filed as functional, organism-based.
Assay [6] deals with T4, Mannose-6-phosphate isomerase (Homo sapiens, UniProt P34949).
T4 sequence (P34949 whole entry): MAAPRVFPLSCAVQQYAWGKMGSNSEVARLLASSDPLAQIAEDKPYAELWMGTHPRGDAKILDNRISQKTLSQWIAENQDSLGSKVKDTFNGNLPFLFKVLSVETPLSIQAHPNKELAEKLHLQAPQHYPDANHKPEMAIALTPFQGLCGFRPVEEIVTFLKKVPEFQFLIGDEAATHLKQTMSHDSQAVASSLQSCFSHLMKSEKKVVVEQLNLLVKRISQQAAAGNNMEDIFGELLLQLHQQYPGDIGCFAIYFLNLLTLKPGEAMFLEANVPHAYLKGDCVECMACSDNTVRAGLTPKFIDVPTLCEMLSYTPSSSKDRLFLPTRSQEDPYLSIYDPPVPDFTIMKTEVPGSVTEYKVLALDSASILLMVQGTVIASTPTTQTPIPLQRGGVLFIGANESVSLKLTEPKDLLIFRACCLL
As to the kind of experiment: human PMI inhibitors, high substrate, primary screen, biochemical, fluorescence intensity, high mannose 6-phosphate (AID 1220).

Assay [7] concerns the target T5, Replicative DNA helicase DnaB (Mycobacterium tuberculosis, UniProt P9WMR3).
T5 sequence (P9WMR3 whole entry): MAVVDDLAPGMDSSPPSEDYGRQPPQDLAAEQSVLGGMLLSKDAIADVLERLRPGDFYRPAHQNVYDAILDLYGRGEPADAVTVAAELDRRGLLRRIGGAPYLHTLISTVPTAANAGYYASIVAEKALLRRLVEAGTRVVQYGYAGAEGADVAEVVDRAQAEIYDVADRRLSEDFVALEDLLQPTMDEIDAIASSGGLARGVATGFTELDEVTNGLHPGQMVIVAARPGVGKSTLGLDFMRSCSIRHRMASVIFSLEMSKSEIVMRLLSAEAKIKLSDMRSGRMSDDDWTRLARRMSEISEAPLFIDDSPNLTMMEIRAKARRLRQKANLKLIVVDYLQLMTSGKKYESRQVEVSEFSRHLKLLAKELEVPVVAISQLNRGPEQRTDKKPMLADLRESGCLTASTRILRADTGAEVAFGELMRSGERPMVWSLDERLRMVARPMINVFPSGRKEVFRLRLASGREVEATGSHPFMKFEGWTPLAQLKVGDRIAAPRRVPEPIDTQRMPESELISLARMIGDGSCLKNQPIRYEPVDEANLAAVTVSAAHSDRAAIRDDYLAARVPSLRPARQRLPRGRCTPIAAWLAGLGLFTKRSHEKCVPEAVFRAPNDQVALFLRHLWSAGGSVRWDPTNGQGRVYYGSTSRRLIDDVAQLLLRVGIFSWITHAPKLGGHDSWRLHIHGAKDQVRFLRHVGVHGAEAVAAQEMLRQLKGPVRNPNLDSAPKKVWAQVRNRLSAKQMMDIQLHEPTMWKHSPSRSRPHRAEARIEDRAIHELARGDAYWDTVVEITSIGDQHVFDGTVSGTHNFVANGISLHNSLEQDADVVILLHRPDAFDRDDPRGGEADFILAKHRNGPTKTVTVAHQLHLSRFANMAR
As to the kind of experiment: DnaB intein splicing inhibitors, dose response, biochemical, cell-free fluorescence (AID 449749). The format is functional.

Assay [8] addresses Heat shock protein HSP 90-alpha (Homo sapiens, UniProt P07900). It is filed as functional, organism-based.
A further assay deals with Vero. The experiment in a line: Vero cell cytotoxicity, cytotoxicity control for flavivirus capping enzyme inhibitors (AID 588742). The format is functional. The settings on record: Chlorocebus sabaeus.
Another assay addresses T6, Protein RecA (Mycobacterium tuberculosis, UniProt P9WHJ3).
T6 sequence (P9WHJ3 whole entry): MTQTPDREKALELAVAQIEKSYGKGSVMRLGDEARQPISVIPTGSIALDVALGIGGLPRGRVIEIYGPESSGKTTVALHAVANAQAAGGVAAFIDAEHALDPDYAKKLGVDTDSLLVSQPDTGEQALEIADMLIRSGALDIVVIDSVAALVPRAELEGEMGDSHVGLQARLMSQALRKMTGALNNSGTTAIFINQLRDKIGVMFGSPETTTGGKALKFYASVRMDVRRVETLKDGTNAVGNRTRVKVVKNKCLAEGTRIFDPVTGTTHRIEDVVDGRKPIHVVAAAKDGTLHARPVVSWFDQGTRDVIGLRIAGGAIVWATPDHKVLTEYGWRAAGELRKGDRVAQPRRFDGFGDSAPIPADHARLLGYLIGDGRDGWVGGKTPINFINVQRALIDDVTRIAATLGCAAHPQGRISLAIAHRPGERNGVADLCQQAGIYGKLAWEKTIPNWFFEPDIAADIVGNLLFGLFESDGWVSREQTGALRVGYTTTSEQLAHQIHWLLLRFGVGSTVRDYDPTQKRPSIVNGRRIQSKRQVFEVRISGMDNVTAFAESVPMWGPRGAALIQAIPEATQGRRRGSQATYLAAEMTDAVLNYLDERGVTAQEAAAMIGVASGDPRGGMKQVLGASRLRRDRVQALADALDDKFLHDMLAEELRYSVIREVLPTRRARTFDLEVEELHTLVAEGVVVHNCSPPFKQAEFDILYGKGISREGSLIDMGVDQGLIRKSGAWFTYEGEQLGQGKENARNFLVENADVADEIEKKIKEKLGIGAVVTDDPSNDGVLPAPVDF
As to the kind of experiment: Fluorescence Cell-Free Homogeneous Dose Retest to Identify Inhibitors of RecA-Intein Splicing Activity. [Related pubchem assays (depositor defined):AID2097, AID2223, AID489010, AID492950]. The format is functional.

The subject of the next assay is INS1. The experiment in a line: beta cell apoptosis inhibitors, cytokine rescue, dose response, luminescence, retest (AID 449756).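 Note: cell death triggered by IL-1 beta plus TNF-alpha plus IFN-gamma mixture; protective hits raise ATP signal compared with cytokine alone wells.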 It is filed as functional, cell-based. The note with it: Rattus norvegicus, INS1.

Active and inactive are the calls of the source.

Sequence of Procathepsin L (P07711 whole entry): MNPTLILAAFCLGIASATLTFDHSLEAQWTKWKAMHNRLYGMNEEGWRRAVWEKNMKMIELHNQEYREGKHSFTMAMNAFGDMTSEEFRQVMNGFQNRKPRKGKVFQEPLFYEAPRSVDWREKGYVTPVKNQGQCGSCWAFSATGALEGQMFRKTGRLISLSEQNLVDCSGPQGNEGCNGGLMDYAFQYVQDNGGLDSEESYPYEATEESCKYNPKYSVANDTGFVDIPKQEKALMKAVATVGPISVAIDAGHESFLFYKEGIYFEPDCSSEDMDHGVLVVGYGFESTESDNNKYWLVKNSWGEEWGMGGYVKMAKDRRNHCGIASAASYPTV

The IC50 is the concentration at which inhibition is half-maximal. As for `Cc1ccc(Nc2nnc(SC(C)C(=O)Nc3c(C)n(C)n(-c4ccccc4)c3=O)s2)cc1` (stereo unspecified), the figures for the IC50 at Leucine aminopeptidase, on Aspartyl aminopeptidase and against Procathepsin L were 3.86 µM (active), > 73.5 µM (not active) and > 59.6 µM (not active), respectively.

In general, EC50 refers to the midpoint of the concentration-response curve. As usually defined, the AC50 is the concentration giving half of the maximal activity seen. By CC50 is commonly meant the concentration giving 50% cytotoxicity. For the compound `CC(=O)C1=C(c2ccc(Br)cc2)C(=O)c2ccccc2C1=O`, the EC50 in assay [1] is 1 µM (active); at Streptokinase A, 7.12 µM (active); in [2], 2.01 µM (active); in assay [3], 1.98 µM (active); in assay [4], 2.42 µM (active); in assay [5], 1.81 µM (active). The concentration giving a half-maximal response (EC50) in the assay with Streptococcus was 9.4 µM (active); on Protein RecA it was 1.94 µM (active). Moreover, the 50% inhibitory concentration (IC50) in [6] was 3.13 µM (active). The half-maximal activity concentration (AC50) in assay [7] is 3.05 µM (active); in assay [8], 7.99 µM (active); in the assay on INS1, 1.06 µM (active). In addition, the CC50 in the assay on Vero is 9.68 µM (active).

(Values after ChEMBL document CHEMBL1201862, “PubChem BioAssay data set” (2004).)
